{
  "source": "ChEMBL document CHEMBL2151017",
  "about": "“Inhibition of α-glucosidase and α-amylase by diaryl derivatives of imidazole-thione and 1,2,4-triazole-thiol” (Eur J Med Chem, 2011)",
  "key": {"[1]": {"test": "Toxicity in po dosed Spanish V-line rabbit assessed as mortality after 24 hrs", "assay_type": "organism-based, Oryctolagus cuniculus", "conditions": "in vivo"}, "[2]": {"system": "Oryctolagus cuniculus", "test": "In vivo inhibition of Spanish V-line rabbit liver alpha-glucosidase assessed as specific enzyme activity per mg protein using maltose as substrate at 10% LD50, po after 8 hrs", "assay_type": "functional"}, "[3]": {"system": "Oryctolagus cuniculus", "test": "In vivo inhibition of Spanish V-line rabbit liver alpha-glucosidase assessed as specific enzyme activity per mg protein using maltose as substrate at 10% LD50, po after 16 hrs", "assay_type": "functional"}, "[4]": {"system": "Oryctolagus cuniculus", "test": "In vivo inhibition of Spanish V-line rabbit liver alpha-glucosidase assessed as specific enzyme activity per mg protein using maltose as substrate at 10% LD50, po after 24 hrs", "assay_type": "functional"}, "[5]": {"system": "Oryctolagus cuniculus", "test": "In vivo inhibition of Spanish V-line rabbit liver alpha-glucosidase assessed as specific enzyme activity per mg protein using maltose as substrate at 10% LD50, po after 48 hrs", "assay_type": "functional"}, "[6]": {"system": "Oryctolagus cuniculus", "test": "In vivo inhibition of Spanish V-line rabbit liver alpha-glucosidase assessed as specific enzyme activity per mg protein using maltose as substrate at 10% LD50, po after 72 hrs", "assay_type": "functional"}, "[7]": {"system": "Oryctolagus cuniculus", "test": "In vivo inhibition of Spanish V-line rabbit liver alpha-glucosidase assessed as specific enzyme activity per mg protein using maltose as substrate at 10% LD50, po after 96 hrs", "assay_type": "functional"}, "[8]": {"system": "Oryctolagus cuniculus", "test": "In vivo inhibition of Spanish V-line rabbit liver alpha-amylase assessed as specific enzyme activity per mg protein using starch as substrate at 10% LD50, po after 8 hrs", "assay_type": "functional"}, "[9]": {"system": "Oryctolagus cuniculus", "test": "In vivo inhibition of Spanish V-line rabbit liver alpha-amylase assessed as specific enzyme activity per mg protein using starch as substrate at 10% LD50, po after 16 hrs", "assay_type": "functional"}, "[10]": {"system": "Oryctolagus cuniculus", "test": "In vivo inhibition of Spanish V-line rabbit liver alpha-amylase assessed as specific enzyme activity per mg protein using starch as substrate at 10% LD50, po after 24 hrs", "assay_type": "functional"}, "[11]": {"system": "Oryctolagus cuniculus", "test": "In vivo inhibition of Spanish V-line rabbit liver alpha-amylase assessed as specific enzyme activity per mg protein using starch as substrate at 10% LD50, po after 48 hrs", "assay_type": "functional"}, "[12]": {"system": "Oryctolagus cuniculus", "test": "In vivo inhibition of Spanish V-line rabbit liver alpha-amylase assessed as specific enzyme activity per mg protein using starch as substrate at 10% LD50, po after 72 hrs", "assay_type": "functional"}, "[13]": {"system": "Oryctolagus cuniculus", "test": "In vivo inhibition of Spanish V-line rabbit liver alpha-amylase assessed as specific enzyme activity per mg protein using starch as substrate at 10% LD50, po after 96 hrs", "assay_type": "functional"}, "[14]": {"system": "Oryctolagus cuniculus", "test": "In vivo inhibition of Spanish V-line rabbit liver alpha-amylase assessed as specific enzyme activity per mg protein using starch as substrate at 10% LD50, po after 120 hrs", "assay_type": "functional"}, "[15]": {"system": "Oryctolagus cuniculus", "test": "In vivo inhibition of Spanish V-line rabbit alpha-glucosidase using maltose as substrate at 25% LD50, po after 24 hrs relative to control", "assay_type": "functional"}, "[16]": {"system": "Oryctolagus cuniculus", "test": "In vivo inhibition of Spanish V-line rabbit liver alpha-glucosidase assessed as specific enzyme activity per mg protein using maltose as substrate at 10% LD50, po after 120 hrs", "assay_type": "functional"}, "[17]": {"system": "Oryctolagus cuniculus", "test": "In vivo inhibition of alpha-glucosidase in po dosed Spanish V-line rabbit using maltose as substrate after 24 hrs", "assay_type": "functional, organism-based"}, "[18]": {"system": "Oryctolagus cuniculus", "test": "In vivo inhibition of alpha-amylase in po dosed Spanish V-line rabbit using starch as substrate at after 24 hrs", "assay_type": "functional, organism-based"}, "[19]": {"system": "Oryctolagus cuniculus", "test": "In vivo inhibition of Spanish V-line rabbit alpha-amylase using starch as substrate at 25% LD50, po after 24 hrs relative to control", "assay_type": "functional"}, "[20]": {"test": "Inhibition of Spanish V-line rabbit liver alpha-glucosidase using maltose as substrate after 5 mins by spectrophotometry", "parameters": "species or system Oryctolagus cuniculus"}, "[21]": {"test": "Inhibition of Spanish V-line rabbit liver alpha-amylase using starch as substrate after 5 mins by spectrophotometry", "parameters": "species or system Oryctolagus cuniculus"}, "[22]": {"species": "Oryctolagus cuniculus", "test": "Reversible Inhibition of Spanish V-line rabbit liver alpha-glucosidase using maltose as substrate compound preincubated for 60 mins by dialysis method"}, "[23]": {"species": "Oryctolagus cuniculus", "test": "Reversible Inhibition of Spanish V-line rabbit liver alpha-amylase using starch as substrate compound preincubated for 60 mins by dialysis method"}, "[24]": {"species": "Oryctolagus cuniculus", "test": "Inhibition of Spanish V-line rabbit liver alpha-glucosidase using maltose as substrate assessed per mg protein at 16 uM by Lineweaver-Burk plot ( RVb = 53 +/- 5 10^-3 uM/min/mg protein )"}, "[25]": {"species": "Oryctolagus cuniculus", "test": "Inhibition of Spanish V-line rabbit liver alpha-glucosidase using maltose as substrate assessed per mg protein at 32 uM by Lineweaver-Burk plot ( RVb = 53 +/- 5 10^-3 uM/min/mg protein )"}, "[26]": {"species": "Oryctolagus cuniculus", "test": "Inhibition of Spanish V-line rabbit liver alpha-glucosidase using maltose as substrate assessed per mg protein at 64 uM by Lineweaver-Burk plot ( RVb = 53 +/- 5 10^-3 uM/min/mg protein )"}, "[27]": {"species": "Oryctolagus cuniculus", "test": "Inhibition of Spanish V-line rabbit liver alpha-amylase using starch as substrate assessed per mg protein at 16 uM by Lineweaver-Burk plot ( RVb = 9.0 +/- 0.8 10^-3 uM/min/mg protein )"}, "[28]": {"species": "Oryctolagus cuniculus", "test": "Inhibition of Spanish V-line rabbit liver alpha-amylase using starch as substrate assessed per mg protein at 32 uM by Lineweaver-Burk plot ( RVb = 9.0 +/- 0.8 10^-3 uM/min/mg protein )"}, "[29]": {"species": "Oryctolagus cuniculus", "test": "Inhibition of Spanish V-line rabbit liver alpha-amylase using starch as substrate assessed per mg protein at 64 uM by Lineweaver-Burk plot ( RVb = 9.0 +/- 0.8 10^-3 uM/min/mg protein )"}, "[30]": {"species": "Oryctolagus cuniculus", "test": "Inhibition of Spanish V-line rabbit liver alpha-glucosidase using maltose as substrate assessed per mg protein at 48 uM by Lineweaver-Burk plot ( RVb = 53 +/- 5 10^-3 uM/min/mg protein )"}, "[31]": {"species": "Oryctolagus cuniculus", "test": "Inhibition of Spanish V-line rabbit liver alpha-amylase using starch as substrate assessed per mg protein at 48 uM by Lineweaver-Burk plot ( RVb = 9.0 +/- 0.8 10^-3 uM/min/mg protein )"}, "[32]": {"test": "Competitive inhibition of Spanish V-line rabbit liver alpha-glucosidase using maltose as substrate by Dixon plot analysis", "parameters": "species or system Oryctolagus cuniculus"}, "[33]": {"test": "Competitive inhibition of Spanish V-line rabbit liver alpha-glucosidase using maltose as substrate by Lineweaver-Burk plot analysis", "parameters": "species or system Oryctolagus cuniculus"}, "[34]": {"test": "Non-competitive inhibition of Spanish V-line rabbit liver alpha-amylase using starch as substrate by Lineweaver-Burk plot analysis", "parameters": "species or system Oryctolagus cuniculus"}, "[35]": {"test": "Non-competitive inhibition of Spanish V-line rabbit liver alpha-amylase using starch as substrate by Dixon plot analysis", "parameters": "species or system Oryctolagus cuniculus"}, "[36]": {"species": "Oryctolagus cuniculus", "test": "Competitive inhibition of Spanish V-line rabbit liver alpha-glucosidase using maltose as substrate"}, "[37]": {"species": "Oryctolagus cuniculus", "test": "Non-competitive inhibition of Spanish V-line rabbit liver alpha-amylase using starch as substrate"}},
  "note": "Active and inactive are the calls of the source. The calls are words filed in the database; no cut-off is given here.",
  "data": [
    {"compound": "Sc1nnc(-c2ccccc2)n1-c1ccccc1", "values": [
      {"measurement": "LD50 at 24 h", "setting": "[1]", "value": 107, "unit": "mg/kg"},
      {"measurement": "Activity", "setting": "[2]", "value": 18.6, "unit": "µM/min"},
      {"measurement": "Activity", "setting": "[3]", "value": 16.7, "unit": "µM/min"},
      {"measurement": "Activity", "setting": "[4]", "value": 15.4, "unit": "µM/min"},
      {"measurement": "Activity", "setting": "[5]", "value": 16.1, "unit": "µM/min"},
      {"measurement": "Activity", "setting": "[6]", "value": 18.5, "unit": "µM/min"},
      {"measurement": "Activity", "setting": "[7]", "value": 19.8, "unit": "µM/min"},
      {"measurement": "Activity", "setting": "[8]", "value": 4.5, "unit": "µM/min"},
      {"measurement": "Activity", "setting": "[9]", "value": 4.1, "unit": "µM/min"},
      {"measurement": "Activity", "setting": "[10]", "value": 3.7, "unit": "µM/min"},
      {"measurement": "Activity", "setting": "[11]", "value": 4, "unit": "µM/min"},
      {"measurement": "Activity", "setting": "[12]", "value": 4.3, "unit": "µM/min"},
      {"measurement": "Activity", "setting": "[13]", "value": 4.6, "unit": "µM/min"},
      {"measurement": "Activity", "setting": "[14]", "value": 4.7, "unit": "µM/min"},
      {"measurement": "inhibition (INH)", "setting": "[15]", "value": 50, "unit": "%"},
      {"measurement": "Activity", "setting": "[16]", "value": 19.9, "unit": "µM/min"},
      {"measurement": "inhibition", "setting": "[17]", "value": "Dose-dependent effect"},
      {"measurement": "inhibition", "setting": "[18]", "value": "Dose-dependent effect"},
      {"measurement": "inhibition (INH)", "setting": "[19]", "value": 46, "unit": "%"},
      {"measurement": "IC50", "setting": "[20]", "value": 67, "unit": "µM"},
      {"measurement": "IC50", "setting": "[21]", "value": 73, "unit": "µM"},
      {"measurement": "inhibition", "setting": "[22]", "value": "Active"},
      {"measurement": "inhibition", "setting": "[23]", "value": "Active"},
      {"measurement": "Vmax", "setting": "[24]", "value": 20, "unit": "nM/min"},
      {"measurement": "Vmax", "setting": "[25]", "value": 18, "unit": "nM/min"},
      {"measurement": "Vmax", "setting": "[26]", "value": 12.5, "unit": "nM/min"},
      {"measurement": "Vmax", "setting": "[27]", "value": 8, "unit": "nM/min"},
      {"measurement": "Vmax", "setting": "[28]", "value": 6.3, "unit": "nM/min"},
      {"measurement": "Vmax", "setting": "[29]", "value": 5.3, "unit": "nM/min"},
      {"measurement": "Vmax", "setting": "[30]", "value": 16.6, "unit": "nM/min"},
      {"measurement": "Vmax", "setting": "[31]", "value": 5.4, "unit": "nM/min"},
      {"measurement": "Ki", "setting": "[32]", "value": 38, "unit": "µM"},
      {"measurement": "Ki", "setting": "[33]", "value": 42, "unit": "µM"},
      {"measurement": "Ki", "setting": "[34]", "value": 72, "unit": "µM"},
      {"measurement": "Ki", "setting": "[35]", "value": 65, "unit": "µM"},
      {"measurement": "inhibition", "setting": "[36]", "value": "Dose-dependent effect"},
      {"measurement": "inhibition", "setting": "[37]", "value": "Dose-dependent effect"}
    ]}
  ]
}
